Laboratory results as given in PubChem BioAssay AID1918948 (Molecular Pharmacology Branch, DTP, NCI, 2023).

Tested on: K-562 leukemia growth, % test/control
Assay: Anticancer human tumor K-562 cell line growth inhibition;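 note: spheroids exposed to compounds for 7 days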;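 for viability, T/C: 100% = DMSO vehicle wells and lower values mean fewer viable cells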
Settings: spheroids with HUVEC and MSC; for IC50: curve of first compound; for viability, T/C: stronger effect = lower value
In short: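 Drug combinations with the LSD1 inhibitor iadademstat tested on tumor cells co-cultured as spheroids with endothelial cells and mesenchymal stem cells. Concentrations descended in half-log increments from clinical Cmax or 10 microM.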

[1] = second compound 0.1 µM, first compound 0.000949 µM
[2] = second compound 0.1 µM, first compound 0.003 µM
[3] = second compound 0.1 µM, first compound 0.00949 µM
[4] = second compound 0.1 µM, first compound 0.03 µM
[5] = second compound 0.1 µM, first compound 0.0949 µM
[6] = second compound 0.1 µM, first compound 0.3 µM
[7] = second compound 0.316 µM, first compound 0.000949 µM
[8] = second compound 0.316 µM, first compound 0.003 µM
[9] = second compound 0.316 µM, first compound 0.00949 µM
[10] = second compound 0.316 µM, first compound 0.03 µM
[11] = second compound 0.316 µM, first compound 0.0949 µM
[12] = second compound 0.316 µM, first compound 0.3 µM
[13] = second compound 1 µM, first compound 0.000949 µM
[14] = second compound 1 µM, first compound 0.003 µM
[15] = second compound 1 µM, first compound 0.00949 µM
[16] = second compound 1 µM, first compound 0.03 µM
[17] = second compound 1 µM, first compound 0.0949 µM
[18] = second compound 1 µM, first compound 0.3 µM
[19] = second compound 3.16 µM, first compound 0.000949 µM
[20] = second compound 3.16 µM, first compound 0.003 µM
[21] = second compound 3.16 µM, first compound 0.00949 µM
[22] = second compound 3.16 µM, first compound 0.03 µM
[23] = second compound 3.16 µM, first compound 0.0949 µM
[24] = second compound 3.16 µM, first compound 0.3 µM
[25] = second compound 10 µM, first compound 0.000949 µM
[26] = second compound 10 µM, first compound 0.003 µM
[27] = second compound 10 µM, first compound 0.00949 µM
[28] = second compound 10 µM, first compound 0.03 µM
[29] = second compound 10 µM, first compound 0.0949 µM
[30] = second compound 10 µM, first compound 0.3 µM

CCc1c2c(nc3ccc(O)cc13)-c1cc3c(c(=O)n1C2)COC(=O)[C@]3(O)CC + NC1CC1c1ccc(-c2cccc(O)c2)cc1
IC50 (second compound 0.1 µM): < 0.949 nM | IC50 (second compound 0.316 µM): < 0.949 nM | IC50 (second compound 1 µM): < 0.949 nM | IC50 (second compound 3.16 µM): < 0.949 nM | IC50 (second compound 10 µM): < 0.949 nM | viability, T/C [1]: 10.6% | viability, T/C [2]: 4.88% | viability, T/C [3]: 2.16% | viability, T/C [4]: 0.75% | viability, T/C [5]: 0.56% | viability, T/C [6]: 0.55% | viability, T/C [7]: 8.09% | viability, T/C [8]: 3.51% | viability, T/C [9]: 1.86% | viability, T/C [10]: 0.71% | viability, T/C [11]: 0.44% | viability, T/C [12]: 0.5% | viability, T/C [13]: 7.04% | viability, T/C [14]: 3.48% | viability, T/C [15]: 1.67% | viability, T/C [16]: 0.89% | viability, T/C [17]: 0.51% | viability, T/C [18]: 0.57% | viability, T/C [19]: 7.47% | viability, T/C [20]: 4.23% | viability, T/C [21]: 2.63% | viability, T/C [22]: 0.67% | viability, T/C [23]: 0.46% | viability, T/C [24]: 0.55% | viability, T/C [25]: 5.81% | viability, T/C [26]: 2.92% | viability, T/C [27]: 1.32% | viability, T/C [28]: 0.74% | viability, T/C [29]: 0.43% | viability, T/C [30]: 1.23%

Nc1ccn(C2OC(CO)C(O)C2(F)F)c(=O)n1 (stereo not given) + NC1CC1c1ccc(-c2cccc(O)c2)cc1
IC50 (second compound 0.1 µM): 9.42 nM | IC50 (second compound 0.316 µM): 8.17 nM | IC50 (second compound 1 µM): 7.91 nM | IC50 (second compound 3.16 µM): 6.77 nM | IC50 (second compound 10 µM): 5.86 nM | viability, T/C [1]: 105% | viability, T/C [2]: 99.8% | viability, T/C [3]: 49.8% | viability, T/C [4]: 12.8% | viability, T/C [5]: 10.7% | viability, T/C [6]: 11.8% | viability, T/C [7]: 107% | viability, T/C [8]: 102% | viability, T/C [9]: 42.1% | viability, T/C [10]: 10.5% | viability, T/C [11]: 8.16% | viability, T/C [12]: 8.05% | viability, T/C [13]: 106% | viability, T/C [14]: 102% | viability, T/C [15]: 40.2% | viability, T/C [16]: 7.41% | viability, T/C [17]: 7.12% | viability, T/C [18]: 7.2% | viability, T/C [19]: 103% | viability, T/C [20]: 101% | viability, T/C [21]: 29% | viability, T/C [22]: 6.83% | viability, T/C [23]: 6.72% | viability, T/C [24]: 7.82% | viability, T/C [25]: 100% | viability, T/C [26]: 93.2% | viability, T/C [27]: 19% | viability, T/C [28]: 5.75% | viability, T/C [29]: 6.04% | viability, T/C [30]: 7.9%

O=C(c1cc(Cc2n[nH]c(=O)c3ccccc23)ccc1F)N1CCN(C(=O)C2CC2)CC1 + NC1CC1c1ccc(-c2cccc(O)c2)cc1
IC50 (second compound 0.1 µM): 9600 nM | IC50 (second compound 0.316 µM): 9550 nM | IC50 (second compound 1 µM): > 10000 nM | IC50 (second compound 3.16 µM): > 10000 nM | IC50 (second compound 10 µM): 8390 nM | viability, T/C (second compound 0.1 µM, first compound 0.0316 µM): 111% | viability, T/C (second compound 0.1 µM, first compound 0.1 µM): 108% | viability, T/C (second compound 0.1 µM, first compound 0.316 µM): 108% | viability, T/C (second compound 0.1 µM, first compound 1 µM): 106% | viability, T/C (second compound 0.1 µM, first compound 3.16 µM): 94.3% | viability, T/C (second compound 0.1 µM, first compound 10 µM): 48.4% | viability, T/C (second compound 0.316 µM, first compound 0.0316 µM): 107% | viability, T/C (second compound 0.316 µM, first compound 0.1 µM): 103% | viability, T/C (second compound 0.316 µM, first compound 0.316 µM): 102% | viability, T/C (second compound 0.316 µM, first compound 1 µM): 101% | viability, T/C (second compound 0.316 µM, first compound 3.16 µM): 90.2% | viability, T/C (second compound 0.316 µM, first compound 10 µM): 47.9% | viability, T/C (second compound 1 µM, first compound 0.0316 µM): 98% | viability, T/C (second compound 1 µM, first compound 0.1 µM): 100% | viability, T/C (second compound 1 µM, first compound 0.316 µM): 102% | viability, T/C (second compound 1 µM, first compound 1 µM): 98.8% | viability, T/C (second compound 1 µM, first compound 3.16 µM): 89.9% | viability, T/C (second compound 1 µM, first compound 10 µM): 50.1% | viability, T/C (second compound 3.16 µM, first compound 0.0316 µM): 104% | viability, T/C (second compound 3.16 µM, first compound 0.1 µM): 101% | viability, T/C (second compound 3.16 µM, first compound 0.316 µM): 100% | viability, T/C (second compound 3.16 µM, first compound 1 µM): 96.9% | viability, T/C (second compound 3.16 µM, first compound 3.16 µM): 87.8% | viability, T/C (second compound 3.16 µM, first compound 10 µM): 51.2% | viability, T/C (second compound 10 µM, first compound 0.0316 µM): 100% | viability, T/C (second compound 10 µM, first compound 0.1 µM): 99.8% | viability, T/C (second compound 10 µM, first compound 0.316 µM): 101% | viability, T/C (second compound 10 µM, first compound 1 µM): 96% | viability, T/C (second compound 10 µM, first compound 3.16 µM): 79.2% | viability, T/C (second compound 10 µM, first compound 10 µM): 44.7%
